Measured values reported in patent US12630498B2 (Genzyme Corporation, priority 2019, dated 2026).

Legend:
[1] = target: T1, human Cystic Fibrosis Transmembrane Conductance Regulator (CFTR) harboring the ΔF508 mutation (Homo sapiens, UniProt P13569, DEL508-508); assay: H441 cell ΔF508-CFTR-HRP cell surface assay (Emax and EC50); type: cell-based; details: for Emax: NCI-H441, NA = Not active
T1 construct: expressed in transfected cells; host or cells: H441 carcinoma line (G418-selected)
Summary of the method: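 H441 and 41o- bronchial epithelial cells expressing ΔF508-CFTR with an extracellular-loop-4 HRP tag were treated with a 15-point compound series (24.5–0.001 μM) for two nights, H441 at 27° C, 41o- at 37° C with 0.0005 mg/ml doxycycline. Surface HRP luminescence read; % of maximum VX809 signal and EC50 derived.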

[2] = target: T2, CFTR-mediated transepithelial chloride transport in primary human bronchial epithelial cells from a ΔF508 homozygous CF donor (Homo sapiens, UniProt P13569, DEL508-508); assay: TECC24 recording of CFTR-mediated transepithelial chloride transport in CF-HBE cells (AUC fold over DMSO); type: cell-based; details: test agent 10 μM, 48 hours incubation, AUC of forskolin-stimulated IEQ relative to DMSO
T2 construct: Primary human bronchial epithelial cells from a ΔF508 homozygous CF donor; host or cells: primary CF-HBE cells, ΔF508 homozygous donor
T2 sequence (P13569 with tags, fused parts or gaps DEL508-508): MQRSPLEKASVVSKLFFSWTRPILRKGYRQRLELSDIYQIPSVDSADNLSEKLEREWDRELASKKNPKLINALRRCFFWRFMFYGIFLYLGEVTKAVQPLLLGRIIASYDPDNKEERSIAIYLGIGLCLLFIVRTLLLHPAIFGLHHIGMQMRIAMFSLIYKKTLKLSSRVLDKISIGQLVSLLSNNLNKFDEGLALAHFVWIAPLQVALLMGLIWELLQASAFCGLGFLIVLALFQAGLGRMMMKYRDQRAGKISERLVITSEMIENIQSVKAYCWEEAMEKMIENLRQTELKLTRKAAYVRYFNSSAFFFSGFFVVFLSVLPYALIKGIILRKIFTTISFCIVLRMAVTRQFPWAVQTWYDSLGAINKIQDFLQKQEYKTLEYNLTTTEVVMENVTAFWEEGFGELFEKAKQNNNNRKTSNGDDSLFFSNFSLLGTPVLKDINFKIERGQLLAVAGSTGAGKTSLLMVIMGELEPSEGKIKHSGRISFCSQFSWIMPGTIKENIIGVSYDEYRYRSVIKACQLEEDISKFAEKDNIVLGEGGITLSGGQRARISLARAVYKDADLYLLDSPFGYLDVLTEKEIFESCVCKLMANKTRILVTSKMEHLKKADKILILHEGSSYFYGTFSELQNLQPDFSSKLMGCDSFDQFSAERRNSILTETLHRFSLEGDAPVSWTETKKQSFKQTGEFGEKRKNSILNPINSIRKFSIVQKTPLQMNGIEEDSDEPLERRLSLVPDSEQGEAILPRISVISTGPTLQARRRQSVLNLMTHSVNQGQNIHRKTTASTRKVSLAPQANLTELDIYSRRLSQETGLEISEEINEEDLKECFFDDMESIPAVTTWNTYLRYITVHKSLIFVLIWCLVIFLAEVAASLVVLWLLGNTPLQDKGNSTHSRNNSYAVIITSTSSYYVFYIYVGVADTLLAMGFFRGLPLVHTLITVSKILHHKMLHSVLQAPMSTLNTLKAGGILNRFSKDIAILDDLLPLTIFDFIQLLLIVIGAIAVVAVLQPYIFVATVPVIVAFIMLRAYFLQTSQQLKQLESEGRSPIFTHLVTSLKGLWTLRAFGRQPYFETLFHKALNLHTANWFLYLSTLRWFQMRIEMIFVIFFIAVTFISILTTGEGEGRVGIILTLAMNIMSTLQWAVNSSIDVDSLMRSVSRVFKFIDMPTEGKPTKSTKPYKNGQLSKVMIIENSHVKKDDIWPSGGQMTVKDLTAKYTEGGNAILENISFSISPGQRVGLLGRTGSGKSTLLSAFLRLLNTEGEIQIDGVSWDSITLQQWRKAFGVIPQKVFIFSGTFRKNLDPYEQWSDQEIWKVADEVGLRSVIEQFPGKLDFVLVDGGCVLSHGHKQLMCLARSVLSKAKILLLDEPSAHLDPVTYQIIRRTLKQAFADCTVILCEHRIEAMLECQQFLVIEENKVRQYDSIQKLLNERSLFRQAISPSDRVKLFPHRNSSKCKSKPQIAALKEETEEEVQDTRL
Summary of the method: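 Primary ΔF508/ΔF508 CF-HBE cells on inserts exposed to test agent in IL-13-containing medium for 48 h at 36.5 °C. Current-clamp VT/TEER recording in pH 7.4 HEPES saline with benzamil 10 μM, forskolin 10 μM, then CFTRinh-172 20 μM. AUC of equivalent Cl⁻ current between forskolin and inhibitor, expressed as ratio over vehicle.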

T1 sequence (P13569 with tags, fused parts or gaps DEL508-508): as above

SMILES | EC50 [1] [nM] | Emax [1] [%] | TECC24 AUC fold over DMSO @10 μM [2]
CC1([C@H](NC(=O)c2ccc3cc(F)ccc3c2OCc2ccc(C(F)(F)F)cc2)C(=O)O)CCCCC1 [Example 40, (S)-2-(6-fluoro-1-((4-(trifluoromethyl)benzyl)oxy)-2-naphthamido)-2-(1-methylcyclohexyl)acetic Acid] | 300 | 100 | C (“C” refers to AUC @10 uM <4)
CC(C)(C)[C@H](NC(=O)c1ccc2ccc(-c3cscn3)cc2c1OCc1ccc(OC(F)(F)F)cc1)C(=O)O [Example 252, (2S)-3,3-dimethyl-2-[[7-thiazol-4-yl-1-[[4-(trifluoromethoxy)phenyl]methoxy]naphthalene-2-carbonyl]amino]butanoic Acid] | 600 | 110 | A (“A” refers to AUC @10 uM >6)
O=C(N[C@H](C(=O)O)C1CCCC1)c1ccc2ccccc2c1OCc1ccc(S(F)(F)(F)(F)F)cc1 [Example 111, (S)-2-cyclopentyl-2-(1-((4-(pentafluoro-16-sulfanyl)benzyl)oxy)-2-naphthamido)acetic Acid] | 2300 | 93.1 | B (“B” refers to AUC @10 uM between 4-6)
COC(=O)c1ccc(COc2c(C(=O)N[C@H](C(=O)O)C(C)(C)C)ccc3ccccc23)cc1 [Example 28, (S)-2-(1-((4-(methoxycarbonyl)benzyl)oxy)-2-naphthamido)-3,3-dimethylbutanoic Acid] | 4900 | 70.2 | C (“C” refers to AUC @10 uM <4)
O=C(N[C@H](C(=O)O)C1CCCC1)c1ccc2cc(F)ccc2c1OCc1ccc(SC(F)(F)F)cc1 [Example 116, (S)-2-cyclopentyl-2-(6-fluoro-1-((4-((trifluoromethyl)thio)benzyl)oxy)-2-naphthamido)acetic Acid] | 1200 | 51.4 | C (“C” refers to AUC @10 uM <4)
O=C(N[C@H](C(=O)O)C12CCC(CC1)C2)c1ccc2ccccc2c1OCc1ccc(OC(F)(F)F)cc1 [Example 14, (S)-2-((1r,4S)-bicyclo[2.2.1]heptan-1-yl)-2-(1-((4-(trifluoromethoxy)benzyl)oxy)-2-naphthamido)acetic Acid] | 100 | 103 | B (“B” refers to AUC @10 uM between 4-6)
O=C(N[C@H](C(=O)O)C1CCCC1)c1ccc2ccccc2c1OCc1ccc(SC(F)(F)F)cc1 [Example 114, (S)-2-cyclopentyl-2-(1-((4-((trifluoromethyl)thio)benzyl)oxy)-2-naphthamido)acetic Acid] | 2600 | 86.1 | C (“C” refers to AUC @10 uM <4)
O=C(N[C@H](C(=O)O)C1CCCC1)c1ccc2ccccc2c1OCc1ccc(C(F)(F)F)cc1 [Example 154, (S)-2-cyclopentyl-2-(1-((4-(trifluoromethyl)benzyl)oxy)-2-naphthamido)acetic Acid] | 1900 | 118 | A (“A” refers to AUC @10 uM >6)
CCC1([C@H](NC(=O)c2ccc3ccc(Cl)cc3c2OCc2ccc(C(F)(F)F)cc2)C(=O)O)CCCC1 [Example 258] | – | 264 | A (“A” refers to AUC @10 uM >6)
Cc1cc(C)c(C[C@H](NC(=O)c2ccc3ccccc3c2OCc2ccc(C(F)(F)F)cc2)C(=O)O)c(C)c1 [Example 178, (S)-3-mesityl-2-(1-((4-(trifluoromethyl)benzyl)oxy)-2-naphthamido)propanoic Acid] | 900 | 150 | C (“C” refers to AUC @10 uM <4)
O=C(N[C@@H](Cc1ccc(C(F)(F)F)cc1)C(=O)O)c1ccc2cc(F)ccc2c1OCc1ccc(Cl)c(Cl)c1 [Example 210, (S)-2-(1-((3,4-dichlorobenzyl)oxy)-6-fluoro-2-naphthamido)-3-(4-(trifluoromethyl)phenyl)propanoic Acid] | 4300 | 38.8 | C (“C” refers to AUC @10 uM <4)
CC(C)(C)[C@@H](NC(=O)c1ccc2ccc(C(F)F)cc2c1OCc1ccc(C(F)(F)F)cc1)C(=O)O [Example 265, (2R)-2-[[7-(difluoromethyl)-1-[[4-(trifluoromethyl)phenyl]methoxy]naphthalene-2-carbonyl]amino]-3,3-dimethyl-butanoic Acid] | 600 | 96.2 | C (“C” refers to AUC @10 uM <4)
Cc1ccc2ccc(C(=O)N[C@H](C(=O)O)C(C)(C)C)c(OCc3ccc(C(F)(F)F)cc3)c2c1 [Example 279, (2S)-3,3-dimethyl-2-[[7-methyl-1-[[4-(trifluoromethyl)phenyl]methoxy]naphthalene-2-carbonyl]amino]butanoic Acid] | 100 | 348 | A (“A” refers to AUC @10 uM >6)
CCC(C)(C)[C@H](NC(=O)c1ccc2ccc(C(F)(F)F)cc2c1OCc1ccc(OC(F)(F)F)cc1)C(=O)O [Example 296, (S)-3,3-dimethyl-2-(1-((4-(trifluoromethoxy)benzyl)oxy)-7-(trifluoromethyl)-2-naphthamido)pentanoic Acid] | 200 | 186 | A (“A” refers to AUC @10 uM >6)
COC(C)(C)[C@H](NC(=O)c1ccc2ccccc2c1OCc1ccc(C(F)(F)F)cc1)C(=O)O [Example 139, (S)-3-methoxy-3-methyl-2-(1-((4-(trifluoromethyl)benzyl)oxy)-2-naphthamido)butanoic Acid] | 1400 | 118 | C (“C” refers to AUC @10 uM <4)
CCC(C)(C)[C@H](NC(=O)c1ccc2ccc(OC)cc2c1OCc1ccc(OC(F)(F)F)cc1)C(=O)O [Example 311, (S)-2-(7-methoxy-1-((4-(trifluoromethoxy)benzyl)oxy)-2-naphthamido)-3,3-dimethylpentanoic Acid] | 500 | 345 | A (“A” refers to AUC @10 uM >6)
CC(C)(SCC1CC1(F)F)[C@H](NC(=O)c1ccc2ccccc2c1OCc1ccc(C(F)(F)F)cc1)C(=O)O (stereo partly drawn) [Example 163, (2R)-3-(((2,2-difluorocyclopropyl)methyl)thio)-3-methyl-2-(1-((4-(trifluoromethyl)benzyl)oxy)-2-naphthamido)butanoic Acid] | 700 | 138 | C (“C” refers to AUC @10 uM <4)
CC1(C(NC(=O)c2ccc3ccccc3c2OCc2ccc(SC(F)(F)F)cc2)C(=O)O)CCCCC1 (centres unmarked) [Example 36, 2-(1-methylcyclohexyl)-2-(1-((4-((trifluoromethyl)thio)benzyl)oxy)-2-naphthamido)acetic Acid] | 700 | 133 | B (“B” refers to AUC @10 uM between 4-6)
CC(C)(C)[C@H](NC(=O)c1ccc2ccc(F)cc2c1OCc1ccc(C(F)(F)F)cc1)C(=O)O [Example 241, (S)-2-(7-fluoro-1-((4-(trifluoromethyl)benzyl)oxy)-2-naphthamido)-3,3-dimethylbutanoic Acid] | 100 | 236 | A (“A” refers to AUC @10 uM >6)
O=C(NC(C(=O)O)C1(C(F)(F)F)CC1)c1ccc2ccc(F)cc2c1OCc1ccc(OC(F)(F)F)cc1 (centres unmarked) [Example 240, 2-(7-fluoro-1-((4-(trifluoromethoxy)benzyl)oxy)-2-naphthamido)-2-(1-(trifluoromethyl)cyclopropyl)acetic Acid] | 800 | 122 | C (“C” refers to AUC @10 uM <4)
O=C(N[C@@H](CCc1ccccc1)C(=O)O)c1ccc2ccccc2c1OCc1ccc(C(F)(F)F)cc1 [Example 88, (S)-4-phenyl-2-(1-((4-(trifluoromethyl)benzyl)oxy)-2-naphthamido)butanoic Acid] | 7300 | 64.4 | C (“C” refers to AUC @10 uM <4)
CC1([C@H](NC(=O)c2ccc3ccc(Cl)cc3c2OCc2ccc(C(F)(F)F)cc2)C(=O)O)CCCC1 [Example 302, (S)-2-(7-chloro-1-((4-(trifluoromethyl)benzyl)oxy)-2-naphthamido)-2-(1-methylcyclopentyl)acetic Acid] | 100 | 248 | A (“A” refers to AUC @10 uM >6)
C=CC(C)(C)C(NC(=O)c1ccc2ccccc2c1OCc1ccc(C(F)(F)F)cc1)C(=O)O (centres unmarked) [Example 223, 3,3-dimethyl-2-[[1-[[4-(trifluoromethyl)phenyl]methoxy]naphthalene-2-carbonyl]amino]pent-4-enoic Acid] | 800 | 112 | B (“B” refers to AUC @10 uM between 4-6)
CC1(C(NC(=O)c2ccc3ccccc3c2OCc2ccc(S(F)(F)(F)(F)F)cc2)C(=O)O)CCCCC1 (centres unmarked) [Example 48, 2-(1-methylcyclohexyl)-2-(1-((4-(pentafluoro-16-sulfanyl)benzyl)oxy)-2-naphthamido)acetic Acid] | 700 | 112 | C (“C” refers to AUC @10 uM <4)
